From PubChem BioAssay (NCI)
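Grown in 96-well plates, cells were treated for 48 hours with each compound at five concentrations. Insufficient inhibition: endpoint recorded as highest concentration tested. TGI denotes the concentration required for complete inhibition of growth.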

Tests used:
Assay in all cases: NCI tumour cell line growth inhibition, 48 h
A498 renal = test system: A498 renal
A549 NSCLC = test system: A549 NSCLC
CAKI-1 renal = test system: CAKI-1 renal
CCRF-CEM leukemia = test system: CCRF-CEM leukemia
COLO 205 colon = test system: COLO 205 colon
DLD-1 colon = test system: DLD-1 colon
DMS 114 small cell lung = test system: DMS 114 small cell lung
DMS 273 small cell lung = test system: DMS 273 small cell lung
EKVX NSCLC = test system: EKVX NSCLC
HCC-2998 colon = test system: HCC-2998 colon
HCT-116 colon = test system: HCT-116 colon
HCT-15 colon = test system: HCT-15 colon
HL-60(TB) leukemia = test system: HL-60(TB) leukemia
HOP-18 NSCLC = test system: HOP-18 NSCLC
HOP-62 NSCLC = test system: HOP-62 NSCLC
HOP-92 NSCLC = test system: HOP-92 NSCLC
HT29 colon = test system: HT29 colon
IGROV1 ovarian = test system: IGROV1 ovarian
K-562 leukemia = test system: K-562 leukemia
KM12 colon = test system: KM12 colon
KM20L2 colon = test system: KM20L2 colon
LOX IMVI melanoma = test system: LOX IMVI melanoma
M19-MEL melanoma = test system: M19-MEL melanoma
MALME-3M melanoma = test system: MALME-3M melanoma
MCF7 breast = test system: MCF7 breast
MOLT-4 leukemia = test system: MOLT-4 leukemia
NCI-H226 lung = test system: NCI-H226 lung
NCI-H23 lung = test system: NCI-H23 lung
NCI-H460 lung = test system: NCI-H460 lung
NCI-H522 lung = test system: NCI-H522 lung
NCI/ADR-RES ovarian = test system: NCI/ADR-RES ovarian
OVCAR-3 ovarian = test system: OVCAR-3 ovarian
OVCAR-4 ovarian = test system: OVCAR-4 ovarian
OVCAR-5 ovarian = test system: OVCAR-5 ovarian
OVCAR-8 ovarian = test system: OVCAR-8 ovarian
P388 leukemia = test system: P388 leukemia
P388/ADR leukemia = test system: P388/ADR leukemia
RPMI-8226 leukemia = test system: RPMI-8226 leukemia
RXF 393 renal = test system: RXF 393 renal
SF-268 CNS = test system: SF-268 CNS
SF-295 CNS = test system: SF-295 CNS
SF-539 CNS = test system: SF-539 CNS
SK-MEL-2 melanoma = test system: SK-MEL-2 melanoma
SK-MEL-28 melanoma = test system: SK-MEL-28 melanoma
SK-MEL-5 melanoma = test system: SK-MEL-5 melanoma
SK-OV-3 ovarian = test system: SK-OV-3 ovarian
SN12C renal = test system: SN12C renal
SN12K1 renal = test system: SN12K1 renal
SNB-19 CNS = test system: SNB-19 CNS
SNB-75 CNS = test system: SNB-75 CNS
SNB-78 CNS = test system: SNB-78 CNS
SW-620 colon = test system: SW-620 colon
U251 CNS = test system: U251 CNS
UACC-257 melanoma = test system: UACC-257 melanoma
UACC-62 melanoma = test system: UACC-62 melanoma
UO-31 renal = test system: UO-31 renal
XF 498 CNS = test system: XF 498 CNS

Measured: TGI

O=C(O)CCC(NC(=O)c1ccc(Nc2nc3ccc(C(F)(F)F)cc3nc2-c2ccccc2)cc1)C(=O)O (configuration not stated)
> 100 µM: A498 renal | A549 NSCLC | CAKI-1 renal | CCRF-CEM leukemia | COLO 205 colon | DLD-1 colon | DMS 114 small cell lung | DMS 273 small cell lung | EKVX NSCLC | HCC-2998 colon | HCT-116 colon | HCT-15 colon | HL-60(TB) leukemia | HOP-18 NSCLC | HOP-62 NSCLC | HOP-92 NSCLC | HT29 colon | IGROV1 ovarian | K-562 leukemia | KM12 colon | KM20L2 colon | LOX IMVI melanoma | M19-MEL melanoma | MALME-3M melanoma | MCF7 breast | MOLT-4 leukemia | NCI-H226 lung | NCI-H23 lung | NCI-H460 lung | NCI-H522 lung | NCI/ADR-RES ovarian | OVCAR-3 ovarian | OVCAR-4 ovarian | OVCAR-5 ovarian | OVCAR-8 ovarian | P388 leukemia | P388/ADR leukemia | RPMI-8226 leukemia | RXF 393 renal | SF-268 CNS | SF-295 CNS | SF-539 CNS | SK-MEL-2 melanoma | SK-MEL-28 melanoma | SK-MEL-5 melanoma | SK-OV-3 ovarian | SN12C renal | SN12K1 renal | SNB-19 CNS | SNB-75 CNS | SNB-78 CNS | SW-620 colon | U251 CNS | UACC-257 melanoma | UACC-62 melanoma | UO-31 renal | XF 498 CNS
